Measured values: PubChem BioAssay AID651630 (Sanford-Burnham Center for Chemical Genomics, 2012)
Calls of active or inactive are those of the source.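 The calls were made as follows: active = lipid-stain IC50 at or below a set limit, with nuclear-stain toxicity IC50 at least five times higher; inactive = the rest.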

How the values were obtained:
DAPI = test: TAG lipid buildup inhibition with viability readout – cell-based, panel, Nile Red and DAPI fluorescence, H9c2, dose response (AID 651630); details: H9c2 cells, DAPI nuclear fluorescence (cytotoxicity counter-readout), oleic acid;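 also: cells exposed to compound overnight before fixation and staining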
TAG = test: as above; details: H9c2 cells, Nile Red TAG fluorescence, oleic acid

| SMILES | IC50 cytotoxicity (DAPI nuclear signal decrease) (DAPI; run 1) [µM] | IC50 cytotoxicity (DAPI nuclear signal decrease) (DAPI; run 2) [µM] | IC50 (TAG; mean of runs) | IC50 (TAG; run 1) [µM] | IC50 (TAG; run 2) [µM] | IC50 cytotoxicity (DAPI nuclear signal decrease) (DAPI; mean of runs) |
| --- | --- | --- | --- | --- | --- | --- |
| CCOc1ccc(CCNC(=O)CN2CCN(Cc3ccccc3C)C2=O)cc1OCC | > 25 | > 25 | 2.19 µM | 1.85 | 2.54 |  |
| COCCNC(=O)c1cc2c(-c3ccc(Cl)cc3)nn(C)c2s1 | > 25 | > 25 | > 25 µM (inactive) | > 25 | > 25 | > 25 µM (inactive) |
| CC(=O)c1cccc(-c2ccc(CN3C(CC(C)C)C(=O)N(Cc4cn(CC5CCCCC5)nn4)CCS3(=O)=O)cc2)c1 (stereo not given) | > 25 | > 25 |  | > 25 | 18.1 | > 25 µM (inactive) |
| CCCCCc1cc(=O)oc2c(C(CCN(CC)CC)c3ccc(OC)cc3)c(OC)cc(OC)c12 (stereo not given) | > 25 | > 25 | > 25 µM (inactive) | > 25 | > 25 | > 25 µM (inactive) |
| CCOC(=O)Cc1ccc(Nc2nc3cc(-c4sccc4C)sc3c(=O)n2C)cc1 | > 25 | > 25 | 18.5 µM (inactive) | 12.9 | 24.1 | > 25 µM (inactive) |
| c1ccc(-c2nc(SCc3nc4ccccc4[nH]3)c3oc4ccccc4c3n2)cc1 | > 25 | > 25 | 10.5 µM | 10 | 11 | > 25 µM (inactive) |
| O=C(Nc1ccc(/C=C/c2nc3ccccc3o2)cc1)c1c(F)cccc1F | > 25 | > 25 | 10.5 µM | 13.2 | 7.82 | > 25 µM (inactive) |
| CCCC(=O)Nc1nc2ccc(NC(=O)c3ccccc3F)cc2s1 | > 25 | > 25 | 13 µM | 12.4 | 13.6 | > 25 µM (inactive) |
| O=C(CCl)N(CCCNC(=O)C(F)(F)F)c1ccc([N+](=O)[O-])cc1 | > 25 | > 25 | > 25 µM (inactive) | > 25 | > 25 | > 25 µM (inactive) |
| COC(=O)c1cc(C(=O)N2CCN(c3cccc(Cl)c3)CC2)cc([N+](=O)[O-])c1 | > 25 | > 25 |  | 22.4 | > 25 | > 25 µM (inactive) |
| Cn1nc(-c2ccc(Cl)cc2)c2cc(C(=O)NC3CC3)sc21 | > 25 | > 25 | 10.8 µM | 13 | 8.58 | > 25 µM (inactive) |
| Cc1nc(C(=O)Nc2ccccc2Cl)cc2c1[nH]c1ccccc12 | > 25 | > 25 | 3.06 µM | 2.87 | 3.24 |  |
| CCN(CC)CCCN(C(=O)c1cccs1)c1nc(-c2ccc(OC)cc2)cs1 | > 25 | > 25 | 10.3 µM | 10.5 | 10 | > 25 µM (inactive) |
| CC(=O)c1ccc(Oc2cc(C)nc(-n3nc(C)cc3C)n2)cc1 | > 25 | > 25 | 11.5 µM | 10.4 | 12.5 | > 25 µM (inactive) |
| CC(=O)c1ccc(-c2cnc3c(NC=O)cc(-c4ccc(C(=O)NC5CC5)cc4)cn23)cc1 | > 25 | > 25 | > 25 µM (inactive) | > 25 | > 25 | > 25 µM (inactive) |
| CN(C)C(=O)c1cccc(-c2cnc3c(NC=O)cc(-c4ccc(C(=O)N5CCOCC5)cc4)cn23)c1 | > 25 | > 25 | 8.71 µM | 3.47 | 13.9 | > 25 µM (inactive) |
| Cc1ccc(Cc2nnc(SCC(=O)Nc3ccccc3)n(N)c2=O)cc1 | > 25 | > 25 | 9.19 µM | 8.57 | 9.8 | > 25 µM (inactive) |

| SMILES | IC50 cytotoxicity (DAPI nuclear signal decrease) (DAPI; run 1) [µM] | IC50 cytotoxicity (DAPI nuclear signal decrease) (DAPI; run 2) [µM] | IC50 (TAG; mean of runs) | IC50 (TAG; run 1) [µM] | IC50 (TAG; run 2) [µM] | IC50 cytotoxicity (DAPI nuclear signal decrease) (DAPI; mean of runs) |
| --- | --- | --- | --- | --- | --- | --- |
| CN1N=C(N)c2cn(C3OC(COP(=O)(O)O)C(O)C3O)c3ncnc1c23 (stereo not given) | 6.76 | 8.79 | 12.2 µM | 11.1 | 13.4 | 7.78 µM (inactive) |
| CC1(C(=O)NCc2cccs2)Cc2c(-c3ccc4c(c3)OCO4)ccnc2O1 (stereo not given) | > 25 | > 25 | > 25 µM (inactive) | > 25 | > 25 | > 25 µM (inactive) |
| COc1ccc(-c2ccc3[nH]c4c(c3c2)CCN2C(=O)[C@@H]([C@H](C)O)[C@@H](N(C)C(=O)Nc3cc(Cl)cc(Cl)c3)C[C@@H]42)cc1 | > 25 | > 25 | 19.5 µM (inactive) | 17.4 | 21.5 | > 25 µM (inactive) |
| CC(=O)O[C@H]1C[C@@]2(C)[C@@H](C[C@@H](O)[C@H]3[C@@]4(C)CC[C@@H](O)[C@@H](C)[C@@H]4CC[C@@]32C)/C1=C(\CCC=C(C)C)C(=O)O | > 25 | > 25 | 18.5 µM (inactive) | 15 | 22 | > 25 µM (inactive) |
| COc1ccc(-c2nc(-c3ccccc3)c(-c3cc([N+](=O)[O-])ccc3C)[nH]2)cc1OC | > 25 | > 25 | 12.9 µM | 12 | 13.9 | > 25 µM (inactive) |
| O=[N+]([O-])c1cccc(S(=O)(=O)N2CN(c3ccc(Br)cc3)c3nc4ccccc4nc32)c1 | > 25 | > 25 | 8.37 µM | 8.4 | 8.34 | > 25 µM (inactive) |
| COc1ccc(-c2cnc3c(NC=O)cc(-c4cccc(NS(C)(=O)=O)c4)cn23)cc1OC | 20.1 | 23 | 13.1 µM | 12.8 | 13.3 | 21.6 µM (inactive) |
| CCCCOc1ccccc1C1CC(=O)NC2=C1C(=O)CCC2 (stereo not given) | > 25 | > 25 | 15.9 µM (inactive) | 9.56 | 22.3 | > 25 µM (inactive) |
| COC(=O)C1=C(C)N(Cc2ccccc2)C(=NCC(C)C)N[C@H]1c1cccc(F)c1 | > 25 | > 25 | > 25 µM (inactive) | > 25 | > 25 | > 25 µM (inactive) |
| CCC(C)(C)NC(=O)C(c1cccn1C)N(Cc1ccc(OC)cc1)C(=O)Cn1nnc2ccccc21 (stereo not given) | > 25 | > 25 | > 25 µM (inactive) | > 25 | > 25 | > 25 µM (inactive) |
| COc1cc(CC(=O)OCC(=O)c2ccc3c(c2)OCCO3)cc(OC)c1OC | 2.3 | > 25 |  | 17.1 | > 25 |  |
| O=C(/C=C/Sc1ccc(C(F)(F)F)cn1)c1ccccc1 | 21 | > 25 | > 25 µM (inactive) | > 25 | > 25 |  |
| Cc1onc(NC(=O)c2ccc([N+](=O)[O-])o2)c1Br | > 25 | > 25 | > 25 µM (inactive) | > 25 | > 25 | > 25 µM (inactive) |
| O=C(NCc1nnnn1-c1ccc(F)cc1)c1ccc([N+](=O)[O-])o1 | 11.8 | 11.9 | 18.9 µM (inactive) | 21.7 | 16 | 11.8 µM (inactive) |
| CC1(C)CCCN(Cc2c(O)ccc3c(=O)c(-c4nc5ccccc5s4)c(N)oc23)C1 | > 25 | > 25 | 10 µM | 10 | 10 | > 25 µM (inactive) |
| COc1cccc(-c2nc(-c3ccc(NC(=O)Cc4ccccc4OC)cc3)no2)c1 | > 25 | > 25 | 4.52 µM | 3.4 | 5.64 |  |
